Among the test systems are HCT-15; SNB-75; NCI-H460; RPMI-8226; OVCAR-8; NCI-H23; CCRF-CEM; NCI-H226; UACC-257; MCF7; SK-MEL-28; SK-MEL-5; SF-539; SW-620; UO-31; IGROV-1; HL-60; CAKI-1; COLO 205; SR.
What all share (test): growth of human tumour cells (NCI), 48 h

The structures appear in SMILES notation.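 Results reflect a 48-hour exposure of cells in 96-well plates to compound at five concentrations. Here, GI50 denotes the concentration required for 50% inhibition of growth.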 The source made the active and inactive calls. No stated cut-off is given here; in the data, active = GI50 up to about 1.1 µM and inactive = higher.

Here are results for twelve molecules from ChEMBL document CHEMBL1201862, “PubChem BioAssay data set” (2004).

As to `CCCCCCOc1ccc(NC2=C(Cl)C(=O)c3cccnc3C2=O)cc1`, the GI50 in the test with HCT-15 was 1.79 µM; in the test with SNB-75, 1 µM (active); in the test on NCI-H460, 1.79 µM (inactive); with RPMI-8226, 0.684 µM (active); in the test with OVCAR-8, 2.03 µM (inactive); in the test with NCI-H23 it was 1.74 µM (inactive). Besides, the GI50 in the test with CCRF-CEM was 1.65 µM (inactive); with NCI-H226, 1.74 µM (inactive); in the test with UACC-257, 2.25 µM (inactive); with MCF7, 1.21 µM (inactive); with SK-MEL-28, 2.13 µM (inactive); with SK-MEL-5, 1.11 µM (active). For the same molecule, the GI50 in the test on SF-539 is 2.09 µM (inactive); in the test with SW-620, 1.54 µM (inactive); in the test with UO-31 it was 1.14 µM (inactive); in the test on IGROV-1, 1.88 µM (inactive); in the test on HL-60, 1.15 µM (inactive).
Consider `c1ccc(CCN2CCOCC2)nc1`, for which the GI50 is above 100 µM in the test with HCT-15; > 100 µM (inactive) in the test on NCI-H460; > 100 µM (inactive) with RPMI-8226; > 100 µM (inactive) in the test with OVCAR-8; > 100 µM (inactive) with NCI-H23; > 100 µM (inactive) in the test with CAKI-1. The GI50 in the test with CCRF-CEM, in the test on NCI-H226, in the test with UACC-257, in the test with MCF7, in the test on SK-MEL-28 and in the test on SK-MEL-5 was > 100 µM (inactive) in each case. In addition, the GI50 in the test on COLO 205, with SW-620, with UO-31, in the test on SR, in the test with IGROV-1 and in the test with HL-60 was > 100 µM (inactive) each time.
Regarding `CCCC1c2c(ccc3ccccc23)Oc2ccc3ccccc3c21`, the GI50 in the test with HCT-15 was 31.6 µM; in the test on SNB-75, > 100 µM (inactive); in the test on NCI-H460, 88.3 µM (inactive); in the test with RPMI-8226, 45.2 µM (inactive); in the test with OVCAR-8, > 100 µM (inactive); in the test on NCI-H23 it was 60.4 µM (inactive). In addition, the GI50 in the test on CAKI-1 is > 100 µM (inactive); with NCI-H226 it was 60.3 µM (inactive); in the test with UACC-257, 24.2 µM (inactive); with MCF7, 15.5 µM (inactive); in the test on SK-MEL-28 it was 68.4 µM (inactive); with SK-MEL-5, 34.7 µM (inactive). In addition, the GI50 in the test on COLO 205 was 41.9 µM (inactive); in the test on SF-539, > 100 µM (inactive); in the test on SW-620 it was 82.4 µM (inactive); in the test with UO-31, > 100 µM (inactive); in the test on IGROV-1 it was 50.7 µM (inactive).
For `COc1cc2c3c4[n+](cc2c(OC)c1OC)CCC4CCC3` (centres undefined), the GI50 in the test on HCT-15 was above 100 µM; with NCI-H460, > 100 µM (inactive); in the test with RPMI-8226 it was 40.4 µM (inactive); in the test on OVCAR-8, > 100 µM (inactive); in the test with NCI-H23, 98.9 µM (inactive); in the test on CAKI-1, > 100 µM (inactive). Further, the GI50 in the test on CCRF-CEM was > 62.1 µM (inactive); in the test with NCI-H226, > 100 µM (inactive); in the test on UACC-257, 57.3 µM (inactive); in the test on MCF7, 75.2 µM (inactive); with SK-MEL-28, > 100 µM (inactive); in the test on SK-MEL-5 it was 21.6 µM (inactive). Besides, the GI50 is 34.7 µM (inactive) in the test with COLO 205; > 100 µM (inactive) in the test with SF-539; > 100 µM (inactive) with SW-620; > 100 µM (inactive) with UO-31; > 100 µM (inactive) with IGROV-1.
As to `COc1c(C)c(C/C=C(\C)CCCC(C)CCCC(C)CCCC(C)C)c(OC)c2ccccc12` (centres undefined), the GI50 with HCT-15 is above 100 µM; with SNB-75, > 100 µM (inactive); in the test with NCI-H460, > 100 µM (inactive); with RPMI-8226, > 100 µM (inactive); with OVCAR-8, > 100 µM (inactive); with NCI-H23 it was > 100 µM (inactive). In addition, the GI50 in the test on CAKI-1, in the test on CCRF-CEM, with UACC-257, with MCF7, in the test with SK-MEL-5 and in the test on COLO 205 was > 100 µM (inactive) each time. The GI50 with SF-539, in the test on SW-620, with UO-31, in the test on SR and with IGROV-1 was > 100 µM (inactive) in each case.
For the molecule `Cc1c2c(c(C)n1-c1ccccc1)C(=O)N(CCN1CCN(c3cccc(C(F)(F)F)c3)CC1)C2=O`, the GI50 in the test with HCT-15 was 17.7 µM; in the test with SNB-75, > 100 µM (inactive); in the test on NCI-H460, 45.3 µM (inactive); with RPMI-8226, 21.5 µM (inactive); in the test with OVCAR-8, 76.4 µM (inactive); with NCI-H23, 7.94 µM (inactive). Also, the GI50 with CAKI-1 is 84.7 µM (inactive); in the test on NCI-H226, > 100 µM (inactive); in the test on UACC-257, 7.67 µM (inactive); in the test on MCF7, 7.71 µM (inactive); with SK-MEL-5, 5.25 µM (inactive); in the test on COLO 205, 17.1 µM (inactive). Further, the GI50 in the test with SF-539 is 87.1 µM (inactive); in the test on UO-31, 48.6 µM (inactive); with IGROV-1 it was > 100 µM (inactive).
On to `O=C(NCC(O)COc1ccccc1)c1ccccc1O` (centres undefined), for which the GI50 was above 100 µM in the test with HCT-15; > 100 µM (inactive) with RPMI-8226; > 100 µM (inactive) with OVCAR-8; > 100 µM (inactive) with NCI-H23; > 100 µM (inactive) in the test on CAKI-1; 40.5 µM (inactive) in the test on CCRF-CEM. For the same molecule, the GI50 in the test on NCI-H226 was > 100 µM (inactive); in the test on UACC-257, > 100 µM (inactive); in the test on MCF7, > 100 µM (inactive); in the test with SK-MEL-28, > 100 µM (inactive); in the test on SK-MEL-5, 63.5 µM (inactive); in the test with COLO 205, > 100 µM (inactive). The GI50 with SF-539 was > 100 µM (inactive); in the test on SW-620, > 100 µM (inactive); in the test on UO-31 it was 47.8 µM (inactive); in the test with SR, 87.7 µM (inactive); with IGROV-1, > 100 µM (inactive).
On to `O=[N+]([O-])C1CC/C(=N/O)c2nonc21` (centres undefined), for which the GI50 is above 10 µM in the test on HCT-15; > 10 µM (inactive) with NCI-H460; > 10 µM (inactive) in the test with RPMI-8226; > 10 µM (inactive) in the test with OVCAR-8; > 10 µM (inactive) with NCI-H23; > 10 µM (inactive) with CAKI-1. Also, the GI50 in the test on CCRF-CEM, in the test on NCI-H226, in the test with UACC-257, in the test on MCF7, in the test on SK-MEL-28 and in the test with SK-MEL-5 was > 10 µM (inactive) in each case. The GI50 in the test on COLO 205, with SF-539, with SW-620, with UO-31, in the test on SR and with IGROV-1 was > 10 µM (inactive) each time. Moreover, the GI50 with HL-60 was > 10 µM (inactive).
`c1ccc(/C(=N/Nc2cnccn2)c2ncccn2)cc1`: the GI50 in the test on HCT-15 is 50.6 µM; in the test with SNB-75 it was 13.7 µM (inactive); with NCI-H460 it was > 100 µM (inactive); in the test on RPMI-8226, > 100 µM (inactive); in the test with OVCAR-8, 46 µM (inactive); in the test with NCI-H23 it was > 100 µM (inactive). Moreover, the GI50 is 50.9 µM (inactive) in the test on CAKI-1; 28 µM (inactive) in the test on CCRF-CEM; > 100 µM (inactive) with UACC-257; > 100 µM (inactive) with MCF7; > 100 µM (inactive) in the test on SK-MEL-28; 39.9 µM (inactive) in the test on SK-MEL-5. For the same molecule, the GI50 is 32.1 µM (inactive) with COLO 205; > 100 µM (inactive) with SF-539; 41.1 µM (inactive) in the test with SW-620; 29 µM (inactive) in the test on UO-31; 12.9 µM (inactive) in the test with SR; 23.7 µM (inactive) in the test on IGROV-1.
`CCC1C(c2cc(OC)c(OC)c(OC)c2)c2cc3c(cc2OC1N1CCOCC1)OCO3` (centres undefined): the GI50 in the test on HCT-15 is 3.08 µM; with SNB-75, 9.4 µM (inactive); in the test on NCI-H460, 3.4 µM (inactive); in the test on OVCAR-8, 3.93 µM (inactive); in the test with NCI-H226, 7.98 µM (inactive); with UACC-257, 14.6 µM (inactive). Besides, the GI50 in the test on MCF7 is 2.84 µM (inactive); in the test with SK-MEL-5, 1.44 µM (inactive); in the test on COLO 205, 4.22 µM (inactive); in the test with SW-620, 1.98 µM (inactive); in the test on UO-31, 3.88 µM (inactive); in the test on SR, 3.18 µM (inactive). Further, in the test with IGROV-1, the GI50 was 3.9 µM (inactive).
As for `NNc1nnc(CCCCCCCCc2nnc(NN)n2N)n1N`, the GI50 in the test with HCT-15 was above 100 µM; with SNB-75, 60.3 µM (inactive); in the test with NCI-H460, > 100 µM (inactive); in the test with OVCAR-8, 17.1 µM (inactive); in the test on NCI-H23, 97.7 µM (inactive); in the test on CAKI-1, > 100 µM (inactive). Moreover, the GI50 with CCRF-CEM, with NCI-H226, with UACC-257, in the test on MCF7, with SK-MEL-28 and in the test on SK-MEL-5 was > 100 µM (inactive) each time. Further, the GI50 was > 100 µM (inactive) in the test on COLO 205; > 100 µM (inactive) in the test with SF-539; > 100 µM (inactive) in the test with SW-620; > 100 µM (inactive) in the test on UO-31; 55.3 µM (inactive) in the test on IGROV-1; 24.4 µM (inactive) with HL-60.
Turning to `C=C1CC[C@H]2C(C)=CC[C@H]3C(=C)C(=O)O[C@@H]3[C@@H]12` [EREMANTHIN], the GI50 in the test on HCT-15 is above 100 µM; in the test on NCI-H460, > 100 µM (inactive); with OVCAR-8 it was > 100 µM (inactive); with NCI-H23, > 100 µM (inactive); in the test on CAKI-1 it was > 100 µM (inactive); in the test on CCRF-CEM, > 100 µM (inactive). For the same molecule, the GI50 in the test with NCI-H226 is > 100 µM (inactive); with UACC-257, > 100 µM (inactive); in the test on MCF7, > 100 µM (inactive); in the test with SK-MEL-28 it was > 100 µM (inactive); with SK-MEL-5, > 100 µM (inactive); in the test with COLO 205, 92 µM (inactive). For the same molecule, the GI50 in the test with SF-539, in the test with SW-620, in the test on UO-31, in the test with SR, in the test with IGROV-1 and in the test with HL-60 was > 100 µM (inactive) each time.
